The test system of one experiment is closed head injury. Nature of the experiment: Neurological severity score (NSS) recovery after closed head injury (CHI). Type of experiment: in vivo, mice. As to conditions: 50 mg/kg i.p. How it is done:
This effect was sustained from 24 h to 21 days following injury as determined by the Mann-Whitney test (n=9-10 per group; * p<0.01; **p<0.001, as compared to vehicle treated, at the same day). (B) Mice were subjected to the object recognition test (Example 6) 3, 7, 14 and 21 days after CHI. The absolute time spent exploring each of the two objects was recorded and the % time calculated. At baseline (bl), when presented with two identical objects, exploration time of each object was about 50% in both groups. In the test (T) situation, after one of the objects was replaced by a novel one the % time spent exploring the new object was calculated.
At 1 h after CHI, the functional status of the mice was evaluated according to a set of 10 neurobehavioral tasks (neurological severity score, NSS) that tests reflexes, alertness coordination, and motor abilities. One point was awarded for absence of reflex or failure to perform a particular task. […] Mice were equally divided to vehicle\ IA groups according to their NSS scores. Only mice with NSS>4 at 1 h after injury were included in the study. […] Recovery (ΔNSSt) was defined as the difference between NSS1h and NSS measured at any later time point and was determined at several time points up to 21 days following CHI.

The test system of the next experiment is anxiety-like behavior. Nature of the experiment: Elevated plus maze. Type of experiment: in vivo, female Sabra mice. As to conditions: 50 mg/kg i.p.
A further experiment deals with T1, mouse TRPV3-YFP (Mus musculus, UniProt Q8K424).
T1 construct: expressed in transfected cells
T1 sequence (Q8K424 1-791): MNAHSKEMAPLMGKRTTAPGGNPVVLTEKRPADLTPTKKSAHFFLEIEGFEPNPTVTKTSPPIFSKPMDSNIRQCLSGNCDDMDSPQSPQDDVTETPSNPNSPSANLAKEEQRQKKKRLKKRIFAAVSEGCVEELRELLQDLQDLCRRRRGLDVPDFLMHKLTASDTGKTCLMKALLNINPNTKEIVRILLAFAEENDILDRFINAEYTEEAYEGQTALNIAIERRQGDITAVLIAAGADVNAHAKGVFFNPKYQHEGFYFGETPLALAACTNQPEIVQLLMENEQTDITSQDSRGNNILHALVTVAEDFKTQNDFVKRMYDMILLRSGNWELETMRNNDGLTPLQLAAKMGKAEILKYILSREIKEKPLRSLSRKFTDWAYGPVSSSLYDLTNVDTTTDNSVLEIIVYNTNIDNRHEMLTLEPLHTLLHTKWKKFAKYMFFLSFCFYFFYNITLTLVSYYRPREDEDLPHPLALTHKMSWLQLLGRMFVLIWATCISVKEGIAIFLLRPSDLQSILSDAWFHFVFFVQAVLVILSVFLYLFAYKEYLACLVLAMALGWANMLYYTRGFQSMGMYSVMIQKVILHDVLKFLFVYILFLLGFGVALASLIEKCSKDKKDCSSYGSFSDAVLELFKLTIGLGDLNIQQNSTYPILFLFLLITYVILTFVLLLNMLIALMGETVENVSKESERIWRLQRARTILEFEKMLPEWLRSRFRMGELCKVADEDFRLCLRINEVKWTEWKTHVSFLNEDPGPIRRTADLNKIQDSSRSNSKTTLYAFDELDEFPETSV
Nature of the experiment: Calcium imaging of HEK293 cells expressing mouse TRPV3-YFP. It counts as cell-based. How it is done:
(§1) All error bars indicate SEM; p values in all subfigures but c represent analysis with one-way ANOVA Bonferroni's post hoc.
TRPV3-YFP [O'dell, D. K., Rimmerman, N., Pickens, S. R. & Walker J. M. Fatty acyl amides of endogenous tetrahydroisoquinolines are active at the recombinant human TRPV1 receptor. […] Med. Chem. 15, 6164-6169 (2007)], TRPV4 and mock-transfected cell lines were cultured in DMEM 1× with L-glutamine (Mediatech, Inc. Herndon, Va.), containing 1% penicillin-streptomycin (Invitrogen, Carlsbad, Calif.) and 10% foetal bovine serum.
Calcium imaging of HEK 293 cells. TRPV1, TRPV3, and TRPV4 expressing HEK293 cells were plated 24-48 h before imaging in 96 well plates, loaded with 3 μM Fura-2 AM and imaged as previously described [O'dell, D. K., Rimmerman, N., Pickens, S. R. & Walker J. M. Fatty acyl amides of endogenous tetrahydroisoquinolines are active at the recombinant human TRPV1 receptor. […] Med. Chem. 15, 6164-6169 (2007)].
(§2) For single cell calcium imaging, HEK293-rat TRPV2 and HEK293-mouse TRPV3-YFP expressing cells were plated on collagen-coated glass cover slips. Cells were loaded for 60 min with 3 μM Fura-2 AM.
Data analysis of calcium imaging data. Analysis of calcium imaging data was done using a non-linear regression curve fit (Graphpad 4 Prism, San Diego, Calif.). t tests and one way ANOVA were calculated using SPSS (Chicago, Ill.). In the keratinocyte experiments, drug-induced response for each cell was taken as the maximal post-drug measurements over time minus the average of the last 5 pre-drug measurements. Averaged drug responses over 30 randomly selected cells per coverslip were analyzed with two-tailed unpaired t tests.

A further experiment concerns the target T2, rat-TRPV2 (Rattus norvegicus, UniProt Q9WUD2).
T2 construct: expressed in transfected cells; host or cells: HEK293 (transient, lipofectamine)
The experiment can be described thus: Calcium imaging of HEK293 cells transiently transfected with rat-TRPV2. Type of experiment: cell-based. As to conditions: IA 100 μM.
From the text: as §1
HEK293 cells were transiently transfected with a rat TRPV2 plasmid using lipofectamine reagent (Invitrogen, Carlsbad, Calif.) according to manufacturer's protocol. They were then maintained in Dulbecco's modified Eagle Medium/10% fetal calf serum supplemented with Penicillin, Streptomycin, and L-glutamine. Primary keratinocytes from TRPV3-deficient and TRPV3+/+ mouse pups (day 1-4) were harvested and cultured as described previously [Chung, M. K., Lee, H., Mizuno, A., Suzuki, M. & Caterina, M. J. TRPV3 and TRPV4 mediate warmth-evoked currents in primary mouse keratinocytes. J. Biol. Chem. 279, 21569-21575 (2004)].
as §2

T2 sequence (Q9WUD2 whole entry): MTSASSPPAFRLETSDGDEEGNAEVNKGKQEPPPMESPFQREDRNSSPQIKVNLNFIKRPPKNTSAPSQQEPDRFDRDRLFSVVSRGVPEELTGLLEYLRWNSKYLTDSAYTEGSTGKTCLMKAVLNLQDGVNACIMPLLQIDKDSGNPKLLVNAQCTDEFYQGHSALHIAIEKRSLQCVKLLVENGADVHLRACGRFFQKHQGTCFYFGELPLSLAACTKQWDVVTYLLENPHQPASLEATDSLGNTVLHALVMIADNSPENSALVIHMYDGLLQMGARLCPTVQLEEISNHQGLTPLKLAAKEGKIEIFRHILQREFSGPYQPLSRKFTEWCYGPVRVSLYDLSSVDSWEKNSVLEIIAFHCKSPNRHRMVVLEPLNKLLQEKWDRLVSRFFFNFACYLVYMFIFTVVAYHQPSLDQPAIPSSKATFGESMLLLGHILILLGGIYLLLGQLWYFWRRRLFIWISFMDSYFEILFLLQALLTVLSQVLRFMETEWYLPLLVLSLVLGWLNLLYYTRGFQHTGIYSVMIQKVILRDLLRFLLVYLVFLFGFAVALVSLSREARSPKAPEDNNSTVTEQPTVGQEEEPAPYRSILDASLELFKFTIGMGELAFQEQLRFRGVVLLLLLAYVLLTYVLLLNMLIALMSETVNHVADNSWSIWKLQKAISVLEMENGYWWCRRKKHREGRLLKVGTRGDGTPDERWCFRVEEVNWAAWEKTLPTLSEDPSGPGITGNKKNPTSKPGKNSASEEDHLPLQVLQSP

Consider `CC(=O)OC1CC/C(C)=C/CC/C(C)=C/CC2(C(C)C)CCC1(C)O2` (centres unmarked) [IA, incensole acetate], for which the “ΔNSS (recovery of motor ability)” value in the experiment on closed head injury (24 h after injury, P=0.002 vs vehicle) amounted to 1.00±0.12. Moreover, the “ΔNSS at subsequent time points” value with closed head injury (up to 3 weeks post injury, vs vehicle) is reported as “significantly higher”. The “time in open arms of the elevated plus maze” value in the experiment with anxiety-like behavior is given as “potent anxiolytic-like effect”. In addition, the “calcium influx vs vehicle” value on mouse TRPV3-YFP (IA 100 μM, 2-APB positive control) is “significantly increased calcium influx”. Besides, the “calcium influx Hill slope” value at mouse TRPV3-YFP (calcium in the extracellular media) turned out to be 2.2. Moreover, the EC50 (as a rule, the concentration that produces a half-maximal response) at mouse TRPV3-YFP (calcium in the extracellular media, read-out: calcium influx EC50) is 16 µM. The “calcium increase with calcium removed from the extracellular medium” value at mouse TRPV3-YFP (no extracellular calcium) is “significantly reduced”. Further, the “calcium influx in rat-TRPV2 transfected HEK293 cells” value at rat-TRPV2 is reported as “did not induce calcium influx”.

The values above are taken from patent publication US20100099756A1, “USES OF INCENSOLE, INCENSOLE ACETATE AND DERIVATIVES THEREOF” (YISSUM RESEARCH DEVELOPMENT COMPANY OF THE HEBREW …, priority 2006, published 2010).
